This is an account of results in PMC6411751, “Use of machine learning to identify novel, behaviorally active antagonists of the insect odorant receptor co-receptor (Orco) subunit” (Scientific Reports, 2019).

Like-named read-outs stand apart in the source and are kept apart here.

The experiment addresses T1, Agam\Orco (Anopheles gambiae, UniProt Q7QCC7).
T1 construct: expressed in transfected cells; host or cells: Xenopus laevis oocytes injected with capped cRNA (plasmid pT7TS, gift of L. Zwiebel)
T1 sequence (Q7QCC7 1-478): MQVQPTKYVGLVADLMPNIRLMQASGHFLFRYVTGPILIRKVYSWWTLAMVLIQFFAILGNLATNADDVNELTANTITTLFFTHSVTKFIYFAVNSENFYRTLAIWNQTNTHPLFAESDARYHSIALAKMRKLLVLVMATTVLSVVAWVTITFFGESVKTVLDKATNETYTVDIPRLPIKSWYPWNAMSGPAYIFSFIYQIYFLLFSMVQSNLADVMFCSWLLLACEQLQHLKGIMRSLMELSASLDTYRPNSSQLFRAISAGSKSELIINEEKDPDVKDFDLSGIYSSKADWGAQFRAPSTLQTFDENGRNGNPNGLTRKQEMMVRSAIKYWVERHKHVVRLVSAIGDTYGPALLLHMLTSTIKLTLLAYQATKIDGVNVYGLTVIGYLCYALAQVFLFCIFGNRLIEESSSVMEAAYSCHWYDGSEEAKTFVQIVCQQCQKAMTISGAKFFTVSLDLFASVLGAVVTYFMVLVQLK
Briefly: cell-based. The following applies: for inhibition at 3000 µM: read-out: inhibition of Agam\Orco (OLC12 response) at 3 mM, 3 mM compound. The class given is cell-based. As for the experimental part:
A 2 hr incubation with collagenase B (Roche) was used to remove follicle cells from oocytes. Capped cRNA for Agam\Orco was synthesized using mMessage mMachine kits (Thermo Fisher Scientific). 25 ng of cRNA was injected into stage V–VI oocytes, followed by a 2–5 day incubation at 18 °C in Barth’s saline (in mM: 88 NaCl, 1 KCl, 2.4 NaHCO3, 0.3 CaNO3, 0.41 CaCl2, 0.82 MgSO4, 15 HEPES, pH 7.4, and 0.05 g/L tetracycline, 0.05 g/L ciprofloxacin, 0.1 g/L amikacin) prior to electrophysiological recordings.
An automated parallel electrophysiology system (OpusExpress 6000 A, Molecular Devices) was used to record Orco agonist (OLC12) or odorant induced currents under two-electrode voltage clamp. Oocytes were perfused with ND96 (in mM: 96 NaCl, 2 KCl, 1 CaCl2, 1 MgCl2, 5 HEPES, pH 7.4). DMSO was used to prepare 1 M or 100 mM stock solutions of test compounds, which were then diluted in ND96 on the day of the experiment. Compounds were applied at a flow rate of 1.0 mL/min, with extensive washing in ND96 at 4.6 mL/min between applications. Micropipettes with resistances of 0.2–2.0 MΩ were filled with 3 M KCl. The holding potential was −70 mV. Current responses were filtered (4-pole, Bessel, low pass) at 20 Hz (−3 db) and sampled at 100 Hz. OpusXpress 1.1 software (Molecular Devices) was used to capture and store current responses.
To measure antagonist activity at Orco, Agam\Orco was activated by the Orco agonist OLC12[34]. […] The current response to OLC12 in the presence of antagonist candidate was compared to the mean of the preceding two responses to OLC12 alone and presented as a percentage[34],[35]. This value was then normalized to the value obtained when the assay was run in the absence of antagonist candidate (sham).
During development of the training panel (Fig. 2, Tables S1 and S2), all compounds not previously known to be Orco antagonists were tested at a concentration of 3 mM. […] Concentration-inhibition curves were constructed for all compounds eliciting >20 percent inhibition at 3 mM. The same concentration and criteria were used during screening of predicted actives (Fig. 4D) and predicted inactives (Fig. 5C).
Clampfit 9.1 software (Molecular Devices) was used to perform initial analysis of electrophysiological data. Prism 7 (Graphpad) was used for curve fitting. Concentration-inhibition data were fit to the equation: I = Imax/(1 + (X/IC50)^n) where I represents the current response at a given concentration of inhibitor, X; Imax is the maximal response in the absence of inhibitor; IC50 is the concentration of inhibitor present that allows a half maximal response from OLC12; n is the apparent Hill coefficient.

The mark [1] stands for this setting: Table S1, training actives, Agam\Orco activated by 30 µM OLC12, mean ± SEM (n = 3-8), read-out: IC50.
[2] abbreviates: Agam\Orco IC50 compared with BMP.
Setting [3] is: Table 2, inhibition of Agam\Orco activated by 30 µM OLC12, mean ± SEM (n = 3–9), read-out: IC50.

`CC1CC[C@H](C(C)C)[C@@H](O)C1` (single isomer, unassigned; (+)) [(+)menthol]: the IC50 under setting [1] came to 443 ± 72 µM.
`C=C(C)C1CC=C(C)[C@@H](O)C1` (single isomer, unassigned; (-)) [(-)-carveol]: under setting [1], the IC50 was found to be 1030 ± 117 µM.
Regarding `C=C(C)C1CCC(C)C(O)C1` (single isomer, unassigned; (-)) [(-)-dihydrocarveol], under setting [1], the IC50 amounted to 818 ± 81 µM.
Regarding `CC1CCC(C(C)C)C(O)C1` (single isomer, unassigned; (-)) [(-)menthol], under setting [1], the half-maximal inhibitory concentration (IC50) was 433 ± 78 µM.
`COc1ccc(OC)cc1` [1,4-dimethoxybenzene]: the IC50 under setting [1] amounted to 1100 ± 172 µM.
Same read-out and setting: the result for `SCCCCCCCCCS` [1,9-nonanedithiol] reads 1600 ± 299 µM.
For the compound `CCCCO` [1-butanol], the “inhibition of Agam\Orco (OLC12 response) at 3 mM” value was at most 20%.
With `C#CC(O)CCCCC` (stereo not drawn) [1-octyn-3-ol], the IC50 under setting [1] turned out to be 870 ± 60 µM.
Regarding `CCC(=O)C(C)=O` [2,3-pentanedione], the inhibition at 3000 µM (30 µM OLC12) was at most 20%.
For the compound `Cc1cc(C)c(O)c(C)c1` [2,4,6-trimethylphenol], the “loss of potency relative to BMP” value under setting [2] is recorded as 4.5 fold. The IC50 under setting [3] turned out to be 212 ± 29 µM.
Consider `CC(C)(C)c1ccc(O)c(C(C)(C)C)c1` [2,4-di-tert-butylphenol], for which half-maximal inhibition (IC50) was put at 15 ± 1 µM and the “more potent than BMP” value turned out to be 3 fold.
For the compound `CC1=NC(C)SC1C` (stereo not drawn) [2,5-dihydro-2,4,5-trimethylthiazoline], the half-maximal inhibitory concentration (IC50) under setting [1] was 13000 ± 2400 µM.
Same read-out and setting: the result for `CC1(O)CSC(C)(O)CS1` (stereo not drawn) [2,5-dimethyl-2,5-dihydroxy-1,4-dithiane] reads 4860 ± 1270 µM.
With `CC(C)(C)c1cccc(C(C)(C)C)c1O` [2,6-di-tert-butylphenol], the “change in potency relative to BMP” value under setting [2] was “slightly decreased potency”. In addition, under setting [3], the IC50 was 92 ± 9 µM.
Regarding `CCc1cccc(CC)c1O` [2,6-diethylphenol], the IC50 was 86 ± 17 µM. Moreover, the “change in potency relative to BMP” value under setting [2] is listed as “slightly decreased potency”.
As for `CCCCC1Cc2ccccc2C1=O` (stereo not drawn) [2-butyl-1-indanone], the IC50 under setting [1] worked out at 289 ± 28 µM.
Take `COc1nccnc1CC(C)C` [2-isobutyl-3-methoxypyrazine]: the IC50 under setting [1] amounted to 1020 ± 83 µM.
For the compound `Cc1ccc(O)c(C(C)(C)C)c1` [2-tert-butyl-4-methylphenol], the “more potent than BMP” value is 2 fold. For the same compound, under setting [3], the IC50 was determined as 25 ± 3 µM.
The compound `CC(C)c1cccc(C(C)(C)C)c1O` [2-tert-butyl-6-isopropylphenol] displayed an IC50 of 50 ± 7 µM. Under setting [2], the “change in potency relative to BMP” value is recorded as “no effect on potency”.
The like results for `CC(C)(C)c1ccccc1O` [2-tert-butylphenol] were, in that order, 32 ± 5 µM and “slight increase in potency”.
For `O=Cc1ccc(O)cc1` [4-hydroxybenzaldehyde], the half-maximal inhibitory concentration (IC50) under setting [1] is 3620 ± 449 µM.
The compound `CC(C)c1ccc(CO)cc1` [4-isopropylbenzyl alcohol] registered an IC50 of 605 ± 116 µM.
For the compound `Cc1ccnc2ccccc12` [4-methylquinoline], the inhibition at 3000 µM (30 µM OLC12) is at most 20%.
Still for that read-out and setting: then `O=C(O)CCCCBr` [5-bromovaleric acid], with at most 20%; and `O=C(O)CCCCCBr` [6-bromohexanoic acid], with at most 20%.
Turning to `C=C(C)[C@@H]1CC[C@@H](C)C(=O)C1` [(+)-dihydrocarvone], the IC50 under setting [1] worked out at 1240 ± 219 µM.
On the same count and under the same terms, the result for `CC(C)=CCC[C@@H](C)CC=O` [(R)-(+)-citronellal] reads 651 ± 58 µM; that for `C=C(C)[C@H]1CC=C(C)C(=O)C1` [(S)-carvone], 1280 ± 92 µM.
`CC(C)c1ccc(O)c(C(C)C)c1` [C00014, 2,4-diisopropylphenol]: under setting [3], the IC50 came out at 37 ± 7 µM.
For `CCN(CC)C(=O)c1cccc(C)c1` [DEET, N,N-diethyl-m-toluamide, reference compound], the “inhibition of OLC12 activation” value (1 mM compound, 30 µM OLC12) is “little or no inhibition”. Moreover, the IC50 under setting [1] worked out at 4480 ± 369 µM.
Turning to `CC1(C)C(=O)[C@@]2(C)CC[C@H]1C2` [L-fenchone], under setting [1], the IC50 was found to be 1330 ± 105 µM.
For the compound `CCCCc1ccc(NC(=O)CSc2nnc(-c3ccccn3)n2CC)cc1` [OLC15, N-(4-butylphenyl)-2-((4-Et-5-(2-pyridinyl)-4H-1,2,4-triazol-3-yl)thio)acetamide, reference compound], under setting [1], the IC50 amounted to 10 ± 2 µM.
On the same count and under the same terms, then `Cc1cc(C)c(NC(=O)c2cccs2)c(C)c1` [OX1L, N-mesityl-2-thiophenecarboxamide, reference compound], with 58 ± 10 µM.
On the same count and under the same terms, the result for `Cc1ccc(CNC(=O)c2cccs2)cc1` [OX3a, N-(4-methylbenzyl)-2-thiophenecarboxamide, reference compound] reads 202 ± 15 µM.
As to `CCCCCSC` [amyl methyl sulfide], the IC50 under setting [1] was determined as 915 ± 77 µM.
For `COc1ccccc1` [anisole], under setting [1], the IC50 was 1170 ± 243 µM.
For the compound `O=C(/C=C/c1ccccc1)OCc1ccccc1` [benzyl cinnamate], the IC50 under setting [1] is 492 ± 64 µM.
Take `Brc1ccccc1` [bromobenzene]: the IC50 under setting [1] stood at 1160 ± 143 µM.
Consider `CCCC=O` [butyraldehyde], for which the IC50 under setting [1] stood at 3000 ± 333 µM.
Turning to `Oc1ccccc1O` [catechol], the inhibition at 3000 µM (30 µM OLC12) was at most 20%.
`O=C1CCCC1` [cyclopentanone]: for the setting “30 µM OLC12”, the inhibition at 3000 µM was at most 20%.
As for `O=C1CCCCCCCCCC1` [cycloundecanone], the IC50 under setting [1] came out at 366 ± 28 µM.
Still for that read-out and setting: the result for `CCOC(=O)C=Cc1c(Cl)cccc1Cl` [ethyl 2,6-dichlorocinamate] reads 93 ± 11 µM; that for `CCOC(=O)c1ccccc1` [ethyl benzoate], 569 ± 44 µM.
With `CCOC(=O)CC` [ethyl propionate], the inhibition at 3000 µM (30 µM OLC12) was at most 20%.
As for `CC12CCC(CC1)C(C)(C)O2` [eucalyptol], under setting [1], the IC50 came to 2960 ± 255 µM.
Turning to `OC[C@H]1OC(O)[C@H](O)[C@@H](O)[C@@H]1O` (stereo partly drawn) [glucose], the inhibition at 3000 µM (30 µM OLC12) is at most 20%.
As for `COc1ccccc1O` [guaiacol], under setting [1], the IC50 stood at 4030 ± 654 µM.
As for `CCCCCCOC(C)=O` [hexyl acetate], under setting [1], the IC50 was 841 ± 121 µM.
With `N[C@@H](Cc1c[nH]cn1)C(=O)O` [histidine], the inhibition at 3000 µM (30 µM OLC12) is at most 20%.
On to `O=CCCc1ccccc1` [hydrocinnamaldehyde], for which, under setting [1], the concentration for half-maximal inhibition (IC50) came to 220 ± 24 µM.
On the same count and under the same terms, then `CC(C)CCOC(=O)Cc1ccccc1` [isoamyl phenylacetate], with 692 ± 66 µM.
In the case of `CC1=CC(=O)CC(C)(C)C1` [isophorone], the inhibition at 3000 µM (30 µM OLC12) is at most 20%.
In the case of `CC(C)OC(=O)C=Cc1ccccc1` [isopropyl cinnamate], the IC50 under setting [1] was found to be 153 ± 14 µM.
On to `CCCCC/C=C\C/C=C\CCCCCCCC(=O)O` [linoleic acid], for which the inhibition at 3000 µM (30 µM OLC12) was at most 20%.
`Cc1cccc(O)c1` [m-cresol]: the 50% inhibitory concentration (IC50) under setting [1] was determined as 1280 ± 238 µM.
For `COC(C)=O` [methyl acetate], the IC50 under setting [1] worked out at 1640 ± 179 µM.
Still for that read-out and setting: the result for `C=CCc1ccc(OC)c(OC)c1` [methyl eugenol] reads 525 ± 40 µM.
Consider `c1ccc(CNc2ccccc2)cc1` [n-benzylaniline], for which half-maximal inhibition (IC50) required 114 ± 12 µM.
For the compound `N[C@@H](Cc1ccccc1)C(=O)O` [phenylalanine], for the setting “30 µM OLC12”, the inhibition at 3000 µM is at most 20%.
For `O=Cc1ccc2c(c1)OCO2` [piperonal], the IC50 under setting [1] is 2570 ± 244 µM.
Regarding `CC(C)c1cccc(C(C)C)c1O` [propofol, 2,6-diisopropylphenol, reference compound], the IC50 worked out at 47 ± 3 µM and the Orco antagonist activity result is reported as “has Orco antagonist activity”.
With `c1cnccn1` [pyrazine], the inhibition at 3000 µM (30 µM OLC12) is at most 20%.

As a reminder, the IC50 is the point on the concentration scale where inhibition reaches its midpoint. For orientation: inhibition means the drop in the measured response relative to a control, in per cent.
